Biological target: Human Kidney Microsome-derived 20-HETE-producing Enzyme
Experiment: Inhibitory effect against human kidney microsome-derived 20-HETE-producing enzyme
Format: biochemical
Details: human kidney microsomal fraction, tritium-arachidonic acid substrate, NADPH, 37° C. for 1.5 hours, pH 7.4; read-out: IC50 (50% inhibition of 20-HETE production)
Experimental: Inhibitory Effect Against Human Kidney Microsome-derived 20-HETE-producing Enzyme
The compounds listed in the table above were tested for their inhibitory effect against 20-HETE production.
This test was performed as described in J. Pharmacol. Exp. Ther., vol. 268, p. 474, 1994.
A test drug solution adjusted with DMSO to 1 μM was added to 50 mM 3-morpholinopropanesulfonate (MOPS) buffer (pH 7.4) containing 5 mM magnesium chloride and 1 mM ethylenediaminetetraacetic acid disodium salt (EDTA). The resulting mixture was further supplemented with a human kidney microsomal fraction (Human Cell Culture Center, Anatomic Gift Foundation) as an enzyme source, [5,6,8,9,11,12,14,15]tritium-arachidonic acid as a substrate, and NADPH as a coenzyme, followed by reaction at 37° C. for 1.5 hours. After addition of formic acid to stop the reaction, the reaction mixture was supplemented with acetonitrile (final concentration: 50%). The level of 20-HETE production was measured by high performance liquid chromatography using an ODS column (Biosil C18, BioRad Laboratories) and a radioisotope detector. Assuming that the level of 20-HETE production in the absence of a test compound was set to 100%, the concentration required for the test compound to cause 50% inhibition of 20-HETE production was calculated (IC50 value).

- IC50: 10.5 nM
Compound: CN(C)CC(C)(C)CCc1ccc(N/C=N/O)cc1 [Example 1, N-[4-(4-N,N-dimethylamino-3,3-dimethyl-butyl)phenyl]-N′-hydroxyformamidine]

Source: patent US7288566B2, “N-hydroxyformamidine derivatives” (Taisho Pharmaceutical Co., Ltd., priority 2002, dated 2007)
